From patent US8895561B2, “Compounds and methods for treating candidiasis and aspergillus infections” (Cellceutix Corporation, priority 2012, dated 2014) come the findings set out here.

Experiment [1] relates to C. albicans mature biofilms. The experiment can be described thus: Metabolic activity of mature biofilms grown at an air-liquid interface. It counts as cell-based.
The test system of experiment [2] is C. albicans (GDH2346) hyphae. Put plainly: Activity against hyphae, Live-Dead stain fluorescence microscopy. Type of experiment: cell-based. The settings on record: 8 μg/mL, 15 to 60 minutes. As to the method:
C. albicans (GDH2346) was grown in 10% FCS for 3 days to achieve hyphae. Hyphae were treated with Compound 100 (8 μg/mL) for 0 minutes (see, FIG. 2A), 15 minutes (see, FIG. 2B), 30 minutes (see, FIG. 2C), or 60 minutes (see, FIG. 2D). Cultures were stained with FungaLight Live-Dead stain (InVitrogen) and observed under fluorescence microscopy (100× magnification).

Experiment [3] concerns C. albicans GDH2346. Put plainly: Cellular efflux, ATP release by luciferase assay. It counts as cell-based. As to the method:
(A) C. albicans GDH2346 was treated with either Compound 100 or histatin 5 for 30 minutes, followed by the separation of the extracellular medium and the cells. Intracellular and extracellular ATP levels were quantified by luciferase assay and measurement in a luminometer, relative to a standard control. Treatment 1=no treatment; Treatment 2=16 μg/mL Compound 100; Treatment 3=32 μg/mL Compound 100; and Treatment 4=Histatin 5 (1 mg/mL). (B) Time dependent release of ATP of cells treated with Compound 100 at 32 μg/mL. (C) Dose response of cells treated for 30 minutes, followed by quantification of extracellular ATP.

Experiment [4] relates to C. albicans GDH2346. The experiment can be described thus: Membrane permeabilization, PI staining and flow cytometry. Conditions: 32 μg/mL, 5-minute treatment. It counts as cell-based. As to the method:
(A) C. albicans GDH2346 was treated with Compound 100 at the concentrations indicated ([…]) for 30 minutes, followed by staining with PI and quantification by flow cytometry. Ethanol treatment was used to establish 100% uptake. (B) Cells were treated with Compound 100 at 32 μg/mL for the times indicated. To determine whether the compounds act at the membrane, like many host defense proteins, or intracellularly like histatins, the ability of Compound 100 to cause membrane permeability was assessed. Dose-dependent membrane permeabilization of Candida, as shown by cellular accumulation of PI, was evident within 30 minutes at 8 to 32 μg/mL Compound 100 concentrations (see FIG. 3A). Influx was rapid, where >75% of cells were permeabilized after a 5-minute treatment with Compound 100 at 32 μg/mL (see FIG. 3B).
For orientation: A flow cytometer gives signals particle by particle.

Experiment [5] deals with C. albicans (clinical isolate GDH2346). Put plainly: Mouse model of oral candidiasis. It counts as in vivo, mice. As to the method: To examine the activity of Compound 100 in vivo, an oral model of Candida infection was established in C57B1/6 mice. Animals were first treated for 5 days with oral tetracycline to reduce normal oral flora. An infection was initiated in the mice by inoculating a 50 μL suspension of C. albicans onto lightly scored tongues. This led to colonization of the tongues by days 2 to 4 after inoculation as measured by histological analysis and by recovery of viable colonies upon homogenization. Topical treatment of the infections on day 3 with a single 50 μL dose of a 1 mg/mL compound solution in a neutral hydrogel was sufficient to reduce the total colony counts by greater than 10-fold, equivalent to a similar treatment with an equivalent concentration of Nystatin suspension. […] 8-week old male mBD-1(−/−) mice on a C57B1/6 background were pre-treated for 5 days with 2.5 mg/mL oral tetracycline to reduce normal oral flora (n=5 per group; n=4 for nystatin group). Day 0: infection initiated by oral inoculation of a 50 μL suspension of C. albicans (clinical isolate GDH2346 at 5×10^7 cfu/mL) onto a cotton ball after lightly scoring the tongues. Day 3: Single topical administration of test agent (10 mg/mL) applied in 0.05 mL hydrogel. Tissue was harvested 24 hours post-treatment, homogenized, and quantitated by serial dilution and plating.

For the next experiment, the system named is C. albicans. Put plainly: Mouse Candida sepsis model, kidney burden. It counts as in vivo. The settings on record: neutropenic mice, IV 1 hour after infection, kidneys at 24 hours. As to the method: Mice were made neutropenic with i.p. injections of cyclophosphamide (150 mg/kg in 10 mL/kg) at 4 and 1 day before inoculation. Each animal was then inoculated by injecting 0.1 mL of inoculum of C. albicans in a tail vein. The standard was administered orally and the test compounds by IV 1 hour after infection. The kidneys were collected from four mice in Group 1 at 1 hour after infection and from the remaining mice in the study at 24 hours after infection. Kidneys were combined in a sterile tube. An aliquot of sterile PBS were added to each tube and the contents homogenized with a tissue homogenizer. Serial dilutions of the tissue homogenates were conducted, 0.1 mL aliquots were spread on SDA plates and the plates incubated at 35° C. overnight. The CFU/kidneys were determined from colony counts. One-way ANOVA with Bonferroni Multiple Comparisons Test was performed using GraphPad InStat version 3.00 for Windows 95, GraphPad Software, San Diego Calif. USA.

A further experiment has as its system A. flavus (NRRL3357). The experiment can be described thus: Anti-Aspergillus screen, CLSI M38-A, visual inhibition of growth. It counts as cell-based. The settings on record: screening concentration 10 μM, 24-48 hours. As to the method: (§1) The in vitro efficacy of a library of compounds was assessed for antifungal activity against A. niger (AN1), A. fumigatus ([…]) and A. flavus (NRRL3357) and compared to that of Itraconazole. For a subset of compounds selected based upon efficacy in the screening study a full MIC profile was conducted. Efficacy of test articles was determined in RPMI 1640 broth with MOPS buffered to pH7.2 in accordance with CLSI guidelines M38-A for Antifungal Susceptibility Testing of Filamentous Fungi. The method was modified by using flat well plates to allow microscopic identification of growth. The final screening concentration of each test article was 10 μM. Assay plates were incubated aerobically at 37° C. for 24-48 hours. Following incubation, plates were assessed visually (by eye and microscopically) for inhibition of growth. Inhibition was recorded at 50%, 80% and 100% inhibition compared to the positive control.

In a further experiment the test system is A. niger (AN1). Described as above. It counts as cell-based. The settings on record: screening concentration 10 μM, 24-48 hours. As to the method: as §1
A further experiment concerns A. fumigatus (A1163). Described as above. Conditions: screening concentration 10 μM, 24-48 hours. Type of experiment: cell-based. As to the method:
as §1

Turning to `NCCSc1cc(SCCN)c(C(F)(F)F)cc1NC(=O)c1cc(C(=O)Nc2cc(C(F)(F)F)c(SCCN)cc2SCCN)ncn1` [Compound 100], in experiment [1], the “metabolic activity in mature biofilms” value is “significant reduction of metabolic activity”. In experiment [2], the “death of hyphal cultures” value was “rapidly caused death of hyphal cultures at low concentrations”. Besides, the “time to significant extracellular ATP accumulation” value with C. albicans GDH2346 [3] (32 μg/mL) was no more than 20 min. In the experiment on C. albicans GDH2346 [3] (32 μg/mL, 30 minutes), the “ATP efflux (intracellular vs extracellular ATP)” value was “almost all of the ATP from the cell was extracellular”. The “concentration with detectable extracellular ATP levels” value in the experiment with C. albicans GDH2346 [3] (30 minutes of exposure) amounted to 16 µg/mL. Also, in the experiment with C. albicans GDH2346 [4], the “cells permeabilized (PI uptake)” value was greater than 75%. Further, the “reduction of total colony counts” value in [5] (single 50 μL dose of 1 mg/mL solution in neutral hydrogel, day 3, C57B1/6 mice) is recorded as “greater than 10 fold”. For the same molecule, the “efficacy relative to Nystatin” value in experiment [5] (single topical dose 10 mg/mL in 0.05 mL hydrogel on day 3, tongue harvested 24 hours post-treatment) is 50 fold. Also, in experiment [5] (single topical dose 10 mg/mL in hydrogel), the “effect on infected tongue burden” value is reported as “nearly sterilized the infected tongue”.
On to `NCCCOc1cc(OCCCN)cc(-c2ccc3c(c2)c2cc(-c4cc(OCCCN)cc(OCCCN)c4)ccc2n3CCCN)c1` [Compound 135], for which the “reductions in tissue burden from treatment onset” value in the experiment with C. albicans is no less than 1.5 log10.
On to `N=C(N)N1CCN(c2ccc(-c3cc(-c4ccc(N5CCN(C(=N)N)CC5)cc4)ncn3)cc2)CC1` [Compound 136], for which the inhibition at 10 µM in the experiment on A. flavus (NRRL3357), with A. niger (AN1) and in the experiment on A. fumigatus (A1163) was 100% each time.
